Assay results reported in patent US20250171437A1 (Agios Pharmaceuticals,Inc., priority 2022, published 2025).

Target: T1, human PAH with the R408W mutation (A375 R408W cells) (Homo sapiens, UniProt P00439, R408W)
T1 construct: expressed in transfected cells
T1 sequence (P00439 1-452 R408W): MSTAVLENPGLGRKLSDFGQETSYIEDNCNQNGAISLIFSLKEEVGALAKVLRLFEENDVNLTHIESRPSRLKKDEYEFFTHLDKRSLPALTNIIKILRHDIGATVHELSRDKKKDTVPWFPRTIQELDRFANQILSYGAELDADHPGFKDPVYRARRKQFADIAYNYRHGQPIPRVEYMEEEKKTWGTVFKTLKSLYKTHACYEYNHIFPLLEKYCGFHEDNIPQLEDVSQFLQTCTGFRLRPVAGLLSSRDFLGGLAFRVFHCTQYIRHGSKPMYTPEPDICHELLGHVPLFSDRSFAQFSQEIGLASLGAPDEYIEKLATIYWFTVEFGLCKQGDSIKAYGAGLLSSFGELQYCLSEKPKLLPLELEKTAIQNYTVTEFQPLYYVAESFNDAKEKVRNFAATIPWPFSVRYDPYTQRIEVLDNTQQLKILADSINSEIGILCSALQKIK
Assay: Cell Based Phenylalanine Flux Assay
Conditions: A375 R408W cells; 24 hrs with compound, then 20 μM sepiapterin and 800 μM 13C9,15N-Phenylalanine for 4 hours; 13C-Tyrosine by LC-MS; average where tested multiple times
Outline: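 Phenylalanine-to-tyrosine flux is measured in A375 cells carrying stable human R408W PAH. After 24 h compound exposure, 13C9,15N-Phe (800 μM) with sepiapterin (20 μM) is supplied for 4 h and media 13C-Tyr is read by LC-MS; AC50s are binned.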

SMILES	AC50
O=C(c1oc(C2(O)CCC2)nc1C(F)F)N1CCc2[nH]cnc2[C@@H]1c1nc2cc(F)ccc2o1 [Example 690, (R)-(4-(difluoromethyl)-2-(1-hydroxycyclobutyl)oxazol-5-yl)(4-(5-fluorobenzo[d]oxazol-2-yl)-6,7-dihydro-1H-imidazo[4,5-c]pyridin-5(4H)-yl)methanone]	1 to 5 µM
Cc1ccc2oc([C@@H]3c4nc[nH]c4CCN3C(=O)c3nnc(-c4ccn(C(F)F)n4)o3)nc2c1 [Example 695, (S)-(5-(1-(difluoromethyl)-1H-pyrazol-3-yl)-1,3,4-oxadiazol-2-yl)(4-(5-methylbenzo[d]oxazol-2-yl)-6,7-dihydro-1H-imidazo[4,5-c]pyridin-5(4H)-yl)methanone]	≤ 0.5 µM
Cc1ccc2oc([C@H]3c4nc[nH]c4CCN3C(=O)c3nnc(-c4ccn(C(F)F)n4)o3)nc2c1 [Example 696, (R)-(5-(1-(difluoromethyl)-1H-pyrazol-3-yl)-1,3,4-oxadiazol-2-yl)(4-(5-methylbenzo[d]oxazol-2-yl)-6,7-dihydro-1H-imidazo[4,5-c]pyridin-5(4H)-yl)methanone]	1 to 5 µM
COc1cccc2nc([C@@H]3c4nc[nH]c4CCN3C(=O)c3nc(C(F)(F)F)nn3C)oc12 [Example 697, (S)-(4-(7-methoxybenzo[d]oxazol-2-yl)-6,7-dihydro-1H-imidazo[4,5-c]pyridin-5(4H)-yl)(1-methyl-3-(trifluoromethyl)-1H-1,2,4-triazol-5-yl)methanone]	0.5 to 1 µM
COc1cccc2nc([C@H]3c4nc[nH]c4CCN3C(=O)c3nc(C(F)(F)F)nn3C)oc12 [Example 698, (R)-(4-(7-methoxybenzo[d]oxazol-2-yl)-6,7-dihydro-1H-imidazo[4,5-c]pyridin-5(4H)-yl)(1-methyl-3-(trifluoromethyl)-1H-1,2,4-triazol-5-yl)methanone]	1 to 5 µM
Cc1ccc2nc([C@@H]3c4nc[nH]c4CCN3C(=O)c3nnc(-c4ccn(C(F)F)n4)o3)oc2c1 [Example 703, (S)-(5-(1-(difluoromethyl)-1H-pyrazol-3-yl)-1,3,4-oxadiazol-2-yl)(4-(6-methylbenzo[d]oxazol-2-yl)-6,7-dihydro-1H-imidazo[4,5-c]pyridin-5(4H)-yl)methanone]	0.5 to 1 µM
Cc1ccc2nc([C@H]3c4nc[nH]c4CCN3C(=O)c3nnc(-c4ccn(C(F)F)n4)o3)oc2c1 [Example 704, (R)-(5-(1-(difluoromethyl)-1H-pyrazol-3-yl)-1,3,4-oxadiazol-2-yl)(4-(6-methylbenzo[d]oxazol-2-yl)-6,7-dihydro-1H-imidazo[4,5-c]pyridin-5(4H)-yl)methanone]	1 to 5 µM
CC(C)n1ncnc1C(=O)N1CCc2[nH]cnc2[C@H]1c1nc2ccccc2o1 [Example 705, (S)-(4-(benzo[d]oxazol-2-yl)-6,7-dihydro-1H-imidazo[4,5-c]pyridin-5(4H)-yl)(1-isopropyl-1H-1,2,4-triazol-5-yl)methanone]	≤ 0.5 µM
CC(C)n1ncnc1C(=O)N1CCc2[nH]cnc2[C@@H]1c1nc2ccccc2o1 [Example 706, (R)-(4-(benzo[d]oxazol-2-yl)-6,7-dihydro-1H-imidazo[4,5-c]pyridin-5(4H)-yl)(1-isopropyl-1H-1,2,4-triazol-5-yl)methanone]	0.5 to 1 µM
CC(C)n1ncnc1C(=O)N1CCc2[nH]cnc2[C@H]1c1nc2cccc(F)c2o1 [Example 707, (S)-(4-(7-fluorobenzo[d]oxazol-2-yl)-6,7-dihydro-1H-imidazo[4,5-c]pyridin-5(4H)-yl)(1-isopropyl-1H-1,2,4-triazol-5-yl)methanone]	≤ 0.5 µM
CC(C)n1ncnc1C(=O)N1CCc2[nH]cnc2[C@@H]1c1nc2cccc(F)c2o1 [Example 708, (R)-(4-(7-fluorobenzo[d]oxazol-2-yl)-6,7-dihydro-1H-imidazo[4,5-c]pyridin-5(4H)-yl)(1-isopropyl-1H-1,2,4-triazol-5-yl)methanone]	0.5 to 1 µM
Cc1cccc2nc([C@@H]3c4nc[nH]c4CCN3C(=O)c3ccnn3C(F)(F)F)oc12 [Example 710, (S)-(4-(7-methylbenzo[d]oxazol-2-yl)-6,7-dihydro-1H-imidazo[4,5-c]pyridin-5(4H)-yl)(1-(trifluoromethyl)-1H-pyrazol-5-yl)methanone]	≤ 0.5 µM
Cn1nccc1C(=O)N1CCc2[nH]cnc2[C@H]1c1nc2ccccc2o1 [Example 711, (S)-(4-(benzo[d]oxazol-2-yl)-6,7-dihydro-1H-imidazo[4,5-c]pyridin-5(4H)-yl)(1-methyl-1H-pyrazol-5-yl)methanone]	1 to 5 µM
Cn1nccc1C(=O)N1CCc2[nH]cnc2[C@@H]1c1nc2ccccc2o1 [Example 712, (R)-(4-(benzo[d]oxazol-2-yl)-6,7-dihydro-1H-imidazo[4,5-c]pyridin-5(4H)-yl)(1-methyl-1H-pyrazol-5-yl)methanone]	1 to 5 µM
CC(C)(O)c1ncc(C(=O)N2CCc3[nH]cnc3[C@H]2c2nc3cccc(F)c3o2)o1 [Example 713, (S)-(4-(7-fluorobenzo[d]oxazol-2-yl)-6,7-dihydro-1H-imidazo[4,5-c]pyridin-5(4H)-yl)(2-(2-hydroxypropan-2-yl)oxazol-5-yl)methanone]	0.5 to 1 µM

Next, values leading:

AC50	SMILES
0.5 to 1 µM	Cn1cncc1-c1nc(C(F)F)c(C(=O)N2CCc3[nH]cnc3[C@@H]2c2nc3cccc(F)c3o2)o1 [Example 691, (R)-(4-(difluoromethyl)-2-(1-methyl-1H-imidazol-5-yl)oxazol-5-yl)(4-(7-fluorobenzo[d]oxazol-2-yl)-6,7-dihydro-1H-imidazo[4,5-c]pyridin-5(4H)-yl)methanone]
≤ 0.5 µM	Cn1cncc1-c1nc(C(F)F)c(C(=O)N2CCc3[nH]cnc3[C@H]2c2nc3cccc(F)c3o2)o1 [Example 692, (S)-(4-(difluoromethyl)-2-(1-methyl-1H-imidazol-5-yl)oxazol-5-yl)(4-(7-fluorobenzo[d]oxazol-2-yl)-6,7-dihydro-1H-imidazo[4,5-c]pyridin-5(4H)-yl)methanone]
≤ 0.5 µM	O=C(c1oc(-c2cnccn2)nc1C(F)F)N1CCc2[nH]cnc2[C@H]1c1nc2cccc(F)c2o1 [Example 693, (S)-(4-(difluoromethyl)-2-(pyrazin-2-yl)oxazol-5-yl)(4-(7-fluorobenzo[d]oxazol-2-yl)-6,7-dihydro-1H-imidazo[4,5-c]pyridin-5(4H)-yl)methanone]
≤ 0.5 µM	O=C(c1oc(-c2cnccn2)nc1C(F)F)N1CCc2[nH]cnc2[C@@H]1c1nc2cccc(F)c2o1 [Example 694, (R)-(4-(difluoromethyl)-2-(pyrazin-2-yl)oxazol-5-yl)(4-(7-fluorobenzo[d]oxazol-2-yl)-6,7-dihydro-1H-imidazo[4,5-c]pyridin-5(4H)-yl)methanone]
1 to 5 µM	O=C(c1cnn2cc(N3CCC(O)CC3)ccc12)N1CCc2[nH]cnc2[C@H]1c1nc2cc(F)cc(F)c2o1 [Example 699, (S)-(4-(5,7-difluorobenzo[d]oxazol-2-yl)-6,7-dihydro-1H-imidazo[4,5-c]pyridin-5(4H)-yl)(6-(4-hydroxypiperidin-1-yl)pyrazolo[1,5-a]pyridin-3-yl)methanone]
≥ 5 µM	O=C(c1cnn2cc(N3CCC(O)CC3)ccc12)N1CCc2[nH]cnc2[C@@H]1c1nc2cc(F)cc(F)c2o1 [Example 700, (R)-(4-(5,7-difluorobenzo[d]oxazol-2-yl)-6,7-dihydro-1H-imidazo[4,5-c]pyridin-5(4H)-yl)(6-(4-hydroxypiperidin-1-yl)pyrazolo[1,5-a]pyridin-3-yl)methanone]
≤ 0.5 µM	Cc1cccc2oc([C@@H]3c4nc[nH]c4CCN3C(=O)c3cnn4cc(N5CCC(O)CC5)ccc34)nc12 [Example 701, (S)-(6-(4-hydroxypiperidin-1-yl)pyrazolo[1,5-a]pyridin-3-yl)(4-(4-methylbenzo[d]oxazol-2-yl)-6,7-dihydro-1H-imidazo[4,5-c]pyridin-5(4H)-yl)methanone]
≥ 5 µM	Cc1cccc2oc([C@H]3c4nc[nH]c4CCN3C(=O)c3cnn4cc(N5CCC(O)CC5)ccc34)nc12 [Example 702, (R)-(6-(4-hydroxypiperidin-1-yl)pyrazolo[1,5-a]pyridin-3-yl)(4-(4-methylbenzo[d]oxazol-2-yl)-6,7-dihydro-1H-imidazo[4,5-c]pyridin-5(4H)-yl)methanone]
1 to 5 µM	CC(C)(O)c1ncc(C(=O)N2CCc3[nH]cnc3[C@@H]2c2nc3cccc(F)c3o2)o1 [Example 714, (R)-(4-(7-fluorobenzo[d]oxazol-2-yl)-6,7-dihydro-1H-imidazo[4,5-c]pyridin-5(4H)-yl)(2-(2-hydroxypropan-2-yl)oxazol-5-yl)methanone]
≤ 0.5 µM	COc1cc(F)cc2nc([C@@H]3c4nc[nH]c4CCN3C(=O)c3oc(C(C)(C)O)nc3C(F)F)oc12 [Example 715, (S)-(4-(difluoromethyl)-2-(2-hydroxypropan-2-yl)oxazol-5-yl)(4-(5-fluoro-7-methoxybenzo[d]oxazol-2-yl)-6,7-dihydro-1H-imidazo[4,5-c]pyridin-5(4H)-yl)methanone]
1 to 5 µM	COc1cc(F)cc2nc([C@H]3c4nc[nH]c4CCN3C(=O)c3oc(C(C)(C)O)nc3C(F)F)oc12 [Example 716, (R)-(4-(difluoromethyl)-2-(2-hydroxypropan-2-yl)oxazol-5-yl)(4-(5-fluoro-7-methoxybenzo[d]oxazol-2-yl)-6,7-dihydro-1H-imidazo[4,5-c]pyridin-5(4H)-yl)methanone]
